#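 Cultured in 96-well plates, cells were exposed to test compound for 48 hours across five concentrations. Abbreviation: GI50, concentration required for 50% inhibition of growth.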 Activity calls are given as the source filed them. Cut-off read from the data, not from the text of the source: active = GI50 up to about 1.1 µM and inactive = higher.
# How the values were obtained:
# Assay in all cases: NCI-60 cell line screen, 48 h
# SK-OV-3 = test system: SK-OV-3
# 786-0 = test system: 786-0
# SNB-19 = test system: SNB-19
# IGROV-1 = test system: IGROV-1
# CCRF-CEM = test system: CCRF-CEM
# UACC-257 = test system: UACC-257
# PC-3 = test system: PC-3
# Hs-578T = test system: Hs-578T
# NCI/ADR-RES = test system: NCI/ADR-RES
# HL-60 = test system: HL-60
# OVCAR-5 = test system: OVCAR-5
# RPMI-8226 = test system: RPMI-8226
# SNB-75 = test system: SNB-75
# RXF 393 = test system: RXF 393
# MOLT-4 = test system: MOLT-4
# UO-31 = test system: UO-31
# SK-MEL-2 = test system: SK-MEL-2
# NCI-H226 = test system: NCI-H226
# SN12C = test system: SN12C
# NCI-H522 = test system: NCI-H522
SMILES,GI50 (SK-OV-3),GI50 (786-0),GI50 (SNB-19),GI50 (IGROV-1),GI50 (CCRF-CEM),GI50 (UACC-257),GI50 (PC-3),GI50 (Hs-578T),GI50 (NCI/ADR-RES),GI50 (HL-60),GI50 (OVCAR-5),GI50 (RPMI-8226),GI50 (SNB-75),GI50 (RXF 393),GI50 (MOLT-4),GI50 (UO-31),GI50 (SK-MEL-2),GI50 (NCI-H226),GI50 (SN12C),GI50 (NCI-H522)
CCC(=O)C1(c2ccccc2)CCN(C)CC1,> 100 µM (inactive),> 100 µM (inactive),> 100 µM (inactive),> 100 µM (inactive),> 100 µM (inactive),> 100 µM (inactive),> 100 µM (inactive),> 100 µM (inactive),> 100 µM (inactive),> 100 µM (inactive),> 100 µM (inactive),> 100 µM (inactive),> 100 µM (inactive),> 100 µM (inactive),> 100 µM (inactive),> 100 µM (inactive),,,,
COc1ccc(-c2nc(O)c3ccccc3n2)cc1OC,34.2 µM (inactive),36.1 µM (inactive),31.2 µM (inactive),24.6 µM (inactive),> 100 µM (inactive),> 100 µM (inactive),> 100 µM (inactive),29.2 µM (inactive),28.2 µM (inactive),,> 100 µM (inactive),54.2 µM (inactive),23.8 µM (inactive),26.4 µM (inactive),> 100 µM (inactive),> 100 µM (inactive),98.4 µM (inactive),18.4 µM (inactive),26.5 µM (inactive),
NC(CSC(c1ccccc1)(c1ccccc1)c1ccccc1)C(=O)O (stereo not drawn),0.634 µM (active),0.971 µM (active),1.22 µM (inactive),2.12 µM (inactive),0.583 µM (active),1.84 µM (inactive),1.61 µM (inactive),1.61 µM (inactive),6.67 µM (inactive),0.433 µM (active),15.4 µM (inactive),0.569 µM (active),1.74 µM (inactive),,1.24 µM (inactive),18.5 µM (inactive),0.605 µM (active),3.59 µM (inactive),1.27 µM (inactive),0.59 µM (active)
O=c1c2cc([N+](=O)[O-])cnc2sn1-c1ccc(Oc2ccccc2)cc1,19.8 µM (inactive),43.5 µM (inactive),32.6 µM (inactive),82.8 µM (inactive),26.9 µM (inactive),> 100 µM (inactive),39.9 µM (inactive),18.6 µM (inactive),32.8 µM (inactive),39.9 µM (inactive),58.3 µM (inactive),41.5 µM (inactive),51.6 µM (inactive),,> 100 µM (inactive),56.6 µM (inactive),26.7 µM (inactive),45.2 µM (inactive),> 100 µM (inactive),4.66 µM (inactive)
NC1CC(=O)c2sccc21 (stereo not drawn),> 100 µM (inactive),> 100 µM (inactive),> 100 µM (inactive),> 100 µM (inactive),> 100 µM (inactive),> 100 µM (inactive),56.4 µM (inactive),> 100 µM (inactive),> 100 µM (inactive),,> 100 µM (inactive),> 100 µM (inactive),> 100 µM (inactive),29.6 µM (inactive),> 100 µM (inactive),> 100 µM (inactive),27.9 µM (inactive),> 100 µM (inactive),> 100 µM (inactive),> 100 µM (inactive)
CC(C)NCC(O)c1ccc(OCc2ccccc2)c(OCc2ccccc2)c1-c1ccccc1 (stereo not drawn),1.67 µM (inactive),1.71 µM (inactive),2.6 µM (inactive),1.41 µM (inactive),1.95 µM (inactive),1.88 µM (inactive),1.53 µM (inactive),1.34 µM (inactive),2 µM (inactive),,1.77 µM (inactive),2.51 µM (inactive),1.28 µM (inactive),3 µM (inactive),2.05 µM (inactive),2.52 µM (inactive),2.7 µM (inactive),2.33 µM (inactive),1.75 µM (inactive),1.65 µM (inactive)
N/C(=N\c1ccccc1)c1ccccc1N,> 100 µM (inactive),> 100 µM (inactive),> 100 µM (inactive),> 100 µM (inactive),40.6 µM (inactive),> 100 µM (inactive),> 100 µM (inactive),> 100 µM (inactive),> 100 µM (inactive),31.4 µM (inactive),> 100 µM (inactive),> 100 µM (inactive),80.2 µM (inactive),> 100 µM (inactive),> 100 µM (inactive),> 100 µM (inactive),> 100 µM (inactive),> 100 µM (inactive),,
O=C1/C(=C/c2ccccc2)CCCC1CN1CCCCC1 (stereo not drawn),17.2 µM (inactive),1.87 µM (inactive),15.7 µM (inactive),2.97 µM (inactive),,6.07 µM (inactive),11.4 µM (inactive),2.94 µM (inactive),3.24 µM (inactive),,18.6 µM (inactive),> 100 µM (inactive),7.91 µM (inactive),1.83 µM (inactive),1.43 µM (inactive),1.88 µM (inactive),4.56 µM (inactive),3.45 µM (inactive),5.9 µM (inactive),0.242 µM (active)
CCC1C(NC(=O)OC)C(=O)N1[C@@H](C)c1ccccc1 (stereo partly drawn),> 100 µM (inactive),> 100 µM (inactive),> 100 µM (inactive),> 100 µM (inactive),,> 100 µM (inactive),> 100 µM (inactive),> 100 µM (inactive),> 100 µM (inactive),,> 100 µM (inactive),> 100 µM (inactive),82.6 µM (inactive),> 100 µM (inactive),> 100 µM (inactive),> 100 µM (inactive),> 100 µM (inactive),> 100 µM (inactive),> 100 µM (inactive),> 100 µM (inactive)
Cc1noc(-c2ccc(C(=O)O)[nH]2)c1Br,38.6 µM (inactive),29 µM (inactive),37.4 µM (inactive),16.4 µM (inactive),> 100 µM (inactive),> 100 µM (inactive),> 100 µM (inactive),42.3 µM (inactive),50.5 µM (inactive),,> 100 µM (inactive),> 100 µM (inactive),26.6 µM (inactive),23.4 µM (inactive),> 100 µM (inactive),71.6 µM (inactive),87.9 µM (inactive),,,39.7 µM (inactive)
CCN(CC)C(=S)SC(C(=O)Nc1nnc(-c2ccccc2)o1)c1ccccc1 (stereo not drawn),32.4 µM (inactive),15.8 µM (inactive),29.8 µM (inactive),15.3 µM (inactive),,22.9 µM (inactive),19.3 µM (inactive),40.3 µM (inactive),4.24 µM (inactive),,23.1 µM (inactive),24.4 µM (inactive),31.9 µM (inactive),16.2 µM (inactive),2.88 µM (inactive),10.1 µM (inactive),18.1 µM (inactive),24.7 µM (inactive),10.3 µM (inactive),17.8 µM (inactive)
COc1cc(O)c(C(C)=O)c(O)c1,> 100 µM (inactive),> 100 µM (inactive),,77.3 µM (inactive),,> 100 µM (inactive),60.7 µM (inactive),62.7 µM (inactive),> 100 µM (inactive),,> 100 µM (inactive),,50.8 µM (inactive),> 100 µM (inactive),,59.6 µM (inactive),78.9 µM (inactive),,59 µM (inactive),43.1 µM (inactive)
